DBAASP
≈ marks a conversion by molar mass, not a printed value.

Key:
Experiment in all cases: ≥ marks a high value that may be exact or a test limit, other limits are often not marked, values filed in µg/mL are converted to µM
Escherichia coli = tested on: Escherichia coli
Staphylococcus aureus = tested on: Staphylococcus aureus
Bacillus cereus = tested on: Bacillus cereus
[1] = tested on: Escherichia coli ATCC 25922
[2] = tested on: Candida albicans ATCC 2002

Row | SMILES | MIC (Escherichia coli) [µM] | MIC (Staphylococcus aureus) [µM] | MIC (Bacillus cereus) [µM] | MIC [1] [µM] | MIC [2] [µM]
1 | CC[C@H](C)[C@H](NC(=O)[C@H](CCCN=C(N)N)NC(=O)CNC(=O)[C@@H](NC(=O)[C@H](Cc1ccccc1)NC(=O)[C@@H]1CCCN1C(=O)[C@H](CC(C)C)NC(=O)[C@@H](N)Cc1ccccc1)C(C)C)C(=O)N[C@@H](C)C(=O)N[C@@H](CO)C(=O)N[C@@H](CCCCN)C(=O)N[C@H](C(=O)N[C@H](C(=O)N1CCC[C@H]1C(=O)N[C@@H](CO)C(=O)N[C@H](C(=O)N[C@H](C(=O)NCC(=O)N[C@@H](CCCCN)C(=O)N[C@H](C(=O)O)C(C)C)[C@@H](C)CC)C(C)C)C(C)C)C(C)C [FLPFVGRIASKVVPSVIGKV] | > 121 |  | ≥ 121 |  | 
2 | CC[C@H](C)[C@H](NC(=O)[C@H](CO)NC(=O)[C@H](CCCCN)NC(=O)[C@@H](NC(=O)[C@@H](NC(=O)[C@@H](NC(=O)[C@@H](NC(=O)[C@H](CCCCN)NC(=O)[C@@H](NC(=O)[C@@H](NC(=O)[C@@H](N)CCCCN)[C@@H](C)CC)C(C)C)C(C)C)[C@@H](C)CC)[C@@H](C)O)C(C)C)C(=O)N[C@@H](CO)C(=O)N1CCC[C@H]1C(=O)N[C@@H](C)C(=O)N[C@@H](CO)C(=O)N[C@@H](CC(C)C)C(=O)N[C@H](C(=O)N1CCC[C@H]1C(=O)N[C@H](C(=O)N[C@@H](Cc1ccccc1)C(=O)O)C(C)C)C(C)C [KIVKVITVKSISPASLVPVF] | > 60.2 |  | ≥ 60.2 |  | 
3 | CC[C@H](C)[C@H](NC(=O)[C@@H](NC(=O)[C@@H](NC(=O)[C@@H]1CCCN1C(=O)[C@H](Cc1c[nH]c2ccccc12)NC(=O)[C@H](Cc1ccccc1)NC(=O)[C@H](CCCN=C(N)N)NC(=O)[C@H](CCCCN)NC(=O)[C@@H](NC(=O)[C@@H](N)CCCN=C(N)N)[C@@H](C)CC)C(C)C)C(C)C)C(=O)N[C@@H](CCCN=C(N)N)C(=O)N[C@H](C(=O)N[C@H](C(=O)N[C@H](C(=O)N[C@@H](C)C(=O)NCC(=O)N[C@@H](Cc1ccc(O)cc1)C(=O)N[C@@H](CC(N)=O)C(=O)N[C@@H](CC(C)C)C(=O)N[C@@H](Cc1ccc(O)cc1)C(=O)N[C@@H](CCCN=C(N)N)C(=O)O)C(C)C)C(C)C)[C@@H](C)O [RIKRFWPVVIRTVVAGYNLYR] |  |  |  | 3.6 (≈ 9.38 µg/mL) | 3.6 (≈ 9.38 µg/mL)

Further molecules by falling MIC (Escherichia coli), results first:

Row | MIC (Escherichia coli) [µM] | MIC (Staphylococcus aureus) [µM] | MIC (Bacillus cereus) [µM] | MIC [1] [µM] | MIC [2] [µM] | SMILES
4 | 58.8 (≈ 128 µg/mL) |  | ≥ 118 |  |  | CC[C@H](C)[C@H](NC(=O)[C@H](CCCCN)NC(=O)[C@H](Cc1ccccc1)NC(=O)[C@@H](NC(=O)[C@H](C)NC(=O)[C@@H]1CCCN1)C(C)C)C(=O)N[C@@H](C)C(=O)N[C@@H](CO)C(=O)N[C@@H](CCCCN)C(=O)N[C@H](C(=O)N[C@H](C(=O)N1CCC[C@H]1C(=O)N[C@@H](CO)C(=O)N[C@H](C(=O)N[C@@H](Cc1ccc(O)cc1)C(=O)N[C@@H](CS)C(=O)N[C@@H](CCCCN)C(=O)N[C@H](C(=O)N[C@@H](CO)C(=O)N[C@@H](CCCN=C(N)N)C(=O)O)C(C)C)C(C)C)C(C)C)C(C)C [PAVFKIASKVVPSVYCKVSR]
5 | 57.5 (≈ 128 µg/mL) | > 57.5 | ≥ 57.5 |  |  | CC(C)C[C@H](NC(=O)[C@@H](N)Cc1ccccc1)C(=O)NCC(=O)N[C@H](C(=O)N[C@H](C(=O)N[C@@H](Cc1ccccc1)C(=O)N[C@@H](CCCCN)C(=O)N[C@@H](CCCCN)C(=O)N[C@@H](C)C(=O)N[C@@H](CO)C(=O)N[C@@H](CCCCN)C(=O)N[C@H](C(=O)N[C@@H](Cc1ccccc1)C(=O)N1CCC[C@H]1C(=O)N[C@@H](CCCCN)C(=O)N[C@H](C(=O)N[C@@H](Cc1ccccc1)C(=O)NCC(=O)N[C@@H](CCCCN)C(=O)N[C@H](C(=O)O)C(C)C)C(C)C)C(C)C)C(C)C)C(C)C [FLGVVFKKASKVFPKVFGKV]
6 | 30.3 (≈ 64 µg/mL) | 30.3 (≈ 64 µg/mL) | 15.2 (≈ 32 µg/mL) |  |  | CC(C)C[C@H](NC(=O)[C@H](CCCCN)NC(=O)[C@H](Cc1ccccc1)NC(=O)[C@@H](NC(=O)CNC(=O)CNC(=O)[C@H](CC(C)C)NC(=O)[C@@H](N)Cc1ccccc1)C(C)C)C(=O)N[C@@H](C)C(=O)N[C@@H](CO)C(=O)N[C@@H](CCCCN)C(=O)N[C@H](C(=O)N[C@@H](Cc1ccccc1)C(=O)N1CCC[C@H]1C(=O)N[C@@H](C)C(=O)N[C@H](C(=O)N[C@@H](Cc1ccccc1)C(=O)NCC(=O)N[C@@H](CCCCN)C(=O)N[C@H](C(=O)O)C(C)C)C(C)C)C(C)C [FLGGVFKLASKVFPAVFGKV]
